Measured values: PubChem BioAssay AID2060510 (Molecular Pharmacology Branch, DTP, NCI, 2025)
Several values for one entry are separate records, joined by “and”; a condition that tells them apart may be missing. Identical values can stand only once.

System: 439559-082-T-J2-PDC spheroids viability
Experiment: Anticancer human tumor 439559-082-T-J2-PDC patient-derived colon adenocarcinoma cell line growth inhibition [GQUAD]
Conditions: for viability, T/C: stronger effect = lower value
Description: DNA G-quadruplex Stabilizer Agents in Combinations in Complex Spheroids
A high-throughput screen of multi-cell type tumor spheroids was designed to identify active combinations of DNA G-quadruplex stabilizer agents and targeted small molecules. Complex spheroids include a stromal component modeled by human endothelial cells (HUVEC) and fibroblasts modeled by human mesenchymal stem cells (MSCs). The concentration ranges selected for each drug and investigational agent were based upon clinically achievable concentrations if the clinical Cmax of the agent was known.
Compounds. The drugs and investigational agents: pidnarulex (CX-5461; NSC782164), APTO-253 (NSC789042), BRACO-19 (NSC847499), peposertib (NSC802822), ceralasertib (NSC780249), elimusertib (NSC800525), camonsertib (NSC841442), AZD-1390 (NSC803789), olaparib (NSC753686), talazoparib (NSC767125), ART-558 (NSC835418), sotorasib (NSC818433), MRTX-1133 (NSC836407), SN-38 (NSC673596), topotecan (NSC609699), etoposide (NSC141540), doxorubicin (NSC123127), gemcitabine (NSC613327), 5-fluorouracil (NSC19893), paclitaxel (NSC125973), vemurafenib (NSC761431), panobinostat (NSC761190), R-306465 (JNJ-16241199; NSC773264), adavosertib (NSC754352), TP-3654 (NSC805149), carboplatin (NSC241240), KSQ-4279 (NSC840948), and staurosporine (NSC755774) were obtained from the National Cancer Institute (NCI) Developmental Therapeutics Program Chemical Repository (34). The FDA-approved anticancer drug set is available from the NCI Developmental Therapeutics Program. […] The stock solutions were prepared in dimethyl sulfoxide (DMSO, Sigma-Aldrich, St. Louis, MO, cat. D2650) at 800-fold the tested concentration and stored at -70 degrees C prior to their use. All drugs and investigational agents were tested over a range starting from a high concentration at or near the clinical Cmax and decreasing in half-log increments. If the clinical Cmax for an agent had not been determined, the highest concentration tested was 10 microM.
2.3 Cell Culture. All cells were maintained in an incubator at 37 degrees C and 5% CO2 with 95% humidity. The PDC lines were cultured according to standard operating procedures established by the NCI PDMR. All PDCs were thawed and cultured in Matrigel-coated flasks prepared with a working solution of 1X Ham's F-12 nutrient mix, without supplementation (Invitrogen, cat. 11765054), 100 U/mL penicillin-streptomycin (Invitrogen, cat. 15140122), and 2.5% Matrigel (Corning Inc., cat. 354248) for the first three passages. The 857933-349-R-J2-PDC line was cultured in 6C/Colon 1B media, which includes advanced DMEM/F-12 (Thermo Fisher Scientific, cat. 12634028), 10 mM HEPES (Thermo Fisher Scientific, cat. 15630080), 1X GlutaMAX supplement (Thermo Fisher Scientific, cat. 35050061), 0.1 mg/mL primocin (InvivoGen, cat. ant-pm-2), 10% defined fetal bovine serum, heat inactivated (HyClone Laboratories Inc., cat. SH30070.03HI), 50% L-WRN conditioned media (ATCC, cat. CRL-3276), 1.25 mM N-Acetyl-L-cysteine (Sigma-Aldrich, cat. A9165), 10 mM nicotinamide (Sigma-Aldrich, cat. N0636), 1X B-27 supplement (Thermo Fisher Scientific, cat. 17504044), 1X N-2 supplement (Thermo Fisher Scientific, cat. 17502048), 10 microM Y-27632 dihydrochloride (Tocris Bioscience, cat. 1254), and 50 ng/mL human EGF recombinant protein (Thermo Fisher Scientific, cat. PHG0311). The 485176-168-R4-J1-PDC line was cultured in Panc media, which includes all 6C/Colon 1B media components plus 100 ng/mL human FGF-10 (Thermo Fisher Scientific, cat. 100-26), 500 nM SB-431542 (Selleckchem, cat. S1067), and gastrin (Tocris, cat. 3006).
[…]

[1] = curve of first compound, second compound 0.0316 µM
[2] = curve of first compound, second compound 0.1 µM
[3] = curve of first compound, second compound 0.316 µM
[4] = curve of first compound, second compound 1 µM
[5] = curve of first compound, second compound 3.16 µM
[6] = curve of first compound, second compound 10 µM
[7] = second compound 0.0316 µM, first compound 0.0316 µM
[8] = second compound 0.0316 µM, first compound 0.316 µM
[9] = second compound 0.1 µM, first compound 0.0316 µM
[10] = second compound 0.1 µM, first compound 0.316 µM
[11] = second compound 0.316 µM, first compound 0.0316 µM
[12] = second compound 0.316 µM, first compound 0.316 µM
[13] = second compound 1 µM, first compound 0.0316 µM
[14] = second compound 1 µM, first compound 0.316 µM
[15] = second compound 3.16 µM, first compound 0.0316 µM
[16] = second compound 3.16 µM, first compound 0.316 µM
[17] = second compound 10 µM, first compound 0.0316 µM
[18] = second compound 10 µM, first compound 0.316 µM
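Note: spheroids exposed to the agents for 7 days before readout.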
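Throughout, for viability, T/C: percent of luminescence signal in DMSO vehicle wells taken as 100% viability.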

In the case of CC(C)n1c(=O)n(C)c2cnc3cc(F)c(-c4ccc(OCCCN5CCCCC5)nc4)cc3c21 + Cc1[nH]c2ccc(F)cc2c1-c1nc2c3cccnc3c3ncccc3c2[nH]1, the IC50 [1] is reported as over 10 µM, the IC50 [2] is reported as over 10 µM and the IC50 [3] is reported as over 10 µM. The IC50 [4] was over 10 µM, the IC50 [5] was over 10 µM and the IC50 [6] was over 10 µM. It also gave a viability, T/C [7] of 112%, a viability, T/C (second compound 0.0316 µM, first compound 0.1 µM) of 94.7% and a viability, T/C [8] of 126%. It also gave a viability, T/C (second compound 0.0316 µM, first compound 1 µM) of 125%, a viability, T/C (second compound 0.0316 µM, first compound 3.16 µM) of 130% and a viability, T/C (second compound 0.0316 µM, first compound 10 µM) of 102%. For the same compound, the viability, T/C [9] was 116%, the viability, T/C (second compound 0.1 µM, first compound 0.1 µM) was 110% and the viability, T/C [10] was 117%. For the same compound, the viability, T/C (second compound 0.1 µM, first compound 1 µM) was 123%, the viability, T/C (second compound 0.1 µM, first compound 3.16 µM) was 139% and the viability, T/C (second compound 0.1 µM, first compound 10 µM) was 100%. The viability, T/C [11] was 98.7%, the viability, T/C (second compound 0.316 µM, first compound 0.1 µM) was 104% and the viability, T/C [12] was 127%. For the same compound, the viability, T/C (second compound 0.316 µM, first compound 1 µM) was 122%, the viability, T/C (second compound 0.316 µM, first compound 3.16 µM) was 128% and the viability, T/C (second compound 0.316 µM, first compound 10 µM) was 96.4%. The viability, T/C [13] was 106%, the viability, T/C (second compound 1 µM, first compound 0.1 µM) was 103% and the viability, T/C [14] was 118%. The viability, T/C (second compound 1 µM, first compound 1 µM) was 125%, the viability, T/C (second compound 1 µM, first compound 3.16 µM) was 113% and the viability, T/C (second compound 1 µM, first compound 10 µM) was 113%. It also gave a viability, T/C [15] of 90%, a viability, T/C (second compound 3.16 µM, first compound 0.1 µM) of 88% and a viability, T/C [16] of 107%. The viability, T/C (second compound 3.16 µM, first compound 1 µM) was 102%, the viability, T/C (second compound 3.16 µM, first compound 3.16 µM) was 89.9% and the viability, T/C (second compound 3.16 µM, first compound 10 µM) was 66.7%. The viability, T/C [17] was 85.1%, the viability, T/C (second compound 10 µM, first compound 0.1 µM) was 83.4% and the viability, T/C [18] was 98.8%. It also gave a viability, T/C (second compound 10 µM, first compound 1 µM) of 98.8%, a viability, T/C (second compound 10 µM, first compound 3.16 µM) of 99.6% and a viability, T/C (second compound 10 µM, first compound 10 µM) of 84.8%.
For CC[C@@]1(O)C(=O)OCc2c1cc1n(c2=O)Cc2cc3c(CN(C)C)c(O)ccc3nc2-1 + CN(C)c1ccc(Nc2c3ccc(NC(=O)CCN4CCCC4)cc3nc3cc(NC(=O)CCN4CCCC4)ccc23)cc1, the IC50 [1] was over 0.316 µM, the IC50 [2] was over 0.316 µM and the IC50 [3] was over 0.316 µM. The IC50 [4] was over 0.316 µM, the IC50 [5] was over 0.316 µM and the IC50 [6] was over 0.316 µM. For the same compound, the viability, T/C (second compound 0.0316 µM, first compound 0.000999 µM) was 102%, the viability, T/C (second compound 0.0316 µM, first compound 0.00316 µM) was 94.6% and the viability, T/C (second compound 0.0316 µM, first compound 0.00999 µM) was 104%. For the same compound, the viability, T/C [7] was 106%, the viability, T/C (second compound 0.0316 µM, first compound 0.0999 µM) was 90.2% and the viability, T/C [8] was 76%. For the same compound, the viability, T/C (second compound 0.1 µM, first compound 0.000999 µM) was 108%, the viability, T/C (second compound 0.1 µM, first compound 0.00316 µM) was 111% and the viability, T/C (second compound 0.1 µM, first compound 0.00999 µM) was 102%. It also gave a viability, T/C [9] of 85.7%, a viability, T/C (second compound 0.1 µM, first compound 0.0999 µM) of 91.8% and a viability, T/C [10] of 84%. It also gave a viability, T/C (second compound 0.316 µM, first compound 0.000999 µM) of 123%, a viability, T/C (second compound 0.316 µM, first compound 0.00316 µM) of 97.1% and a viability, T/C (second compound 0.316 µM, first compound 0.00999 µM) of 101%. It also gave a viability, T/C [11] of 100%, a viability, T/C (second compound 0.316 µM, first compound 0.0999 µM) of 87.9% and a viability, T/C [12] of 84.7%. It also gave a viability, T/C (second compound 1 µM, first compound 0.000999 µM) of 114%, a viability, T/C (second compound 1 µM, first compound 0.00316 µM) of 99% and a viability, T/C (second compound 1 µM, first compound 0.00999 µM) of 88.5%. It also gave a viability, T/C [13] of 101%, a viability, T/C (second compound 1 µM, first compound 0.0999 µM) of 91.1% and a viability, T/C [14] of 80.1%. For the same compound, the viability, T/C (second compound 3.16 µM, first compound 0.000999 µM) was 99.8%, the viability, T/C (second compound 3.16 µM, first compound 0.00316 µM) was 92.6% and the viability, T/C (second compound 3.16 µM, first compound 0.00999 µM) was 102%. It also gave a viability, T/C [15] of 93.2%, a viability, T/C (second compound 3.16 µM, first compound 0.0999 µM) of 103% and a viability, T/C [16] of 91.9%. It also gave a viability, T/C (second compound 10 µM, first compound 0.000999 µM) of 102%, a viability, T/C (second compound 10 µM, first compound 0.00316 µM) of 95% and a viability, T/C (second compound 10 µM, first compound 0.00999 µM) of 100%. The viability, T/C [17] was 107%, the viability, T/C (second compound 10 µM, first compound 0.0999 µM) was 85.8% and the viability, T/C [18] was 88.5%.
With COc1cc(C2c3cc4c(cc3C(OC3OC5COC(C)OC5C(O)C3O)C3COC(=O)C23)OCO4)cc(OC)c1O (stereo unspecified) the viability, T/C (compound 0.0316 µM) was 96.1% and 96% and 96.2%, the viability, T/C (compound 0.1 µM) was 93% and 81.9% and 90.7% and the viability, T/C (compound 0.316 µM) was 92.8% and 94.6% and 101%. The viability, T/C (compound 1 µM) was 98.3% and 89.7% and 95%, the viability, T/C (compound 3.16 µM) was 90.2% and 80.1% and 81.5% and the viability, T/C (compound 10 µM) was 62.3% and 61% and 68.8%. It also gave an IC50 (curve of compound) of over 10 µM.
